Results: patent US9850283B2, “Macrocyclic inhibitors of the PD-1/PD-L1 and CD80(B7-1)/PD-L1 protein/protein interactions” (BRISTOL-MYERS SQUIBB COMPANY, priority 2013, dated 2017)
Positions of bridges follow the written chain, without caps; N, C: chain ends. Non-standard residues stand in square brackets, D forms with d. Residues, ends and D or L forms follow the SMILES beside them. ξ: configuration not given here. Bta = N[C@@H](Cc1csc2ccccc12)C(=O)O; Hyp = O=C(O)[C@@H]1C[C@@H](O)CN1; NMeNle = CCCC[C@H](NC)C(=O)O; NMeM = CN[C@@H](CCSC)C(=O)O; NMeA = CN[C@@H](C)C(=O)O; Dap = NC[C@H](N)C(=O)O; ξC = NC(CS)C(=O)O

Tests used:
Human PD-L1/PD-1 = molecular target: T1, Human PD-L1/PD-1 (Homo sapiens, UniProt Q9NZQ7); assay: HTRF PD-1-Ig/PD-L1-His binding assay (human PD-L1); conditions: cluster symbol; read-out: HTRF IC50 cluster
T1 construct: made in house; host or cells: HEK293T
T1 sequence (Q9NZQ7 with tags, fused parts or gaps): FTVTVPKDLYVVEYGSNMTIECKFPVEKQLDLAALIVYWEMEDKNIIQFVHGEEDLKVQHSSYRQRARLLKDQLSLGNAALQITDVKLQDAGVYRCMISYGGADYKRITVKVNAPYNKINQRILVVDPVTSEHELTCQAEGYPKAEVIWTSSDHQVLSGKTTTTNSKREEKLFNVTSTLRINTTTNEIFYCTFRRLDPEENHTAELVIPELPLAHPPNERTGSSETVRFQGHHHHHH
Procedure, shortened: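 Ig- and His-fused extracellular PD-1/PD-L1 binding in BSA/Tween-20 dPBS. HTRF with Eu anti-Ig (1 nM final) and APC anti-His (20 nM final).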

[1] = molecular target: T2, LK35.2-hPD-L1 cells / PE-labeled PD-1-Ig (Homo sapiens, UniProt Q9NZQ7); assay: LK35.2-hPD-L1 cell binding high-content screening assay; assay type: cell-based; conditions: cell binding assay, cell line not given; cluster symbol; read-out: CBA IC50 cluster
T2 construct: expressed in transfected cells; host or cells: LK35.2 mouse B cell line
T2 sequence (Q9NZQ7 19-290): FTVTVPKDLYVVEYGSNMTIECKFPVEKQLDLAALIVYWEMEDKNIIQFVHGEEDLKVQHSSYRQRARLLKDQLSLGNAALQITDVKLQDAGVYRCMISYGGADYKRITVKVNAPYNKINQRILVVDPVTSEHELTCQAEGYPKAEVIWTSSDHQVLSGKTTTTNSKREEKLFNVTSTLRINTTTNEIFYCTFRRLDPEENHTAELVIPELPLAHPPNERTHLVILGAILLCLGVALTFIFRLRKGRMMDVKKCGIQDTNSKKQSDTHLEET
Procedure, shortened: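 Binding of PE-conjugated human PD-1-Ig (1 nM final) to human PD-L1 stably expressed on a mouse B-cell line (LK35.2) was measured by high-content imaging after washes. Compound and labeled PD-1-Ig were co-incubated 1 h at 37 °C with cells in RPMI/10% FCS.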

## CCCC[C@H]1C(=O)N(C)[C@@H](CCSC)C(=O)N[C@@H](C)C(=O)NC(C(=O)NCC(N)=O)CSCC(=O)N[C@@H](Cc2ccc(O)cc2)C(=O)N(C)[C@@H](C)C(=O)N[C@@H](CC(N)=O)C(=O)N2CCC[C@H]2C(=O)N[C@@H](CN)C(=O)N[C@@H](CC(C)C)C(=O)N2C[C@H](O)C[C@H]2C(=O)N[C@@H](Cc2c[nH]c3ccccc23)C(=O)N[C@@H](CO)C(=O)N[C@@H](Cc2c[nH]c3ccccc23)C(=O)N1C (stereo partly drawn) [Example 9087]
Human PD-L1/PD-1
  IC50: 0.385 to 6.74 nM
[1]
  IC50: 0.158 to 4.71 nM

## CCCC[C@H]1C(=O)N(C)[C@@H](CCSC)C(=O)N[C@@H](C)C(=O)NC(C(=O)NCC(N)=O)CSCC(=O)N[C@@H](Cc2ccc(O)cc2)C(=O)N(C)[C@@H](C)C(=O)N[C@@H](CC(N)=O)C(=O)N2CCC[C@H]2C(=O)N[C@@H](CN)C(=O)N[C@@H](CC(C)C)C(=O)N2C[C@H](O)C[C@H]2C(=O)N[C@@H](Cc2c[nH]c3ccccc23)C(=O)N[C@@H](CO)C(=O)N[C@@H](Cc2csc3ccccc23)C(=O)N1C (stereo partly drawn) [Example 9088] ({CH2CO}-Y[NMeA]NP[Dap]L[Hyp]WS[Bta][NMeNle][NMeM]A[ξC]G-NH2; thioether N-14)
Human PD-L1/PD-1
  IC50: 0.385 to 6.74 nM
[1]
  IC50: 0.158 to 4.71 nM

## CCCC[C@H]1C(=O)N[C@@H](CCCNC(=N)N)C(=O)NC(C(=O)NCC(N)=O)CSCC(=O)N[C@@H](Cc2ccc(O)cc2)C(=O)N(C)[C@@H](C)C(=O)N[C@@H](CC(N)=O)C(=O)N2CCC[C@H]2C(=O)N[C@@H](CN)C(=O)N[C@@H](CC(C)C)C(=O)N2CCC[C@H]2C(=O)N[C@@H](Cc2c[nH]c3ccccc23)C(=O)N[C@@H](CO)C(=O)N[C@@H](Cc2c[nH]c3ccccc23)C(=O)N(C)[C@@H](CCSC)C(=O)N1C (stereo partly drawn) [Example 9089] ({CH2CO}-Y[NMeA]NP[Dap]LPWSW[NMeM][NMeNle]R[ξC]G-NH2; thioether N-14)
Human PD-L1/PD-1
  IC50: 0.385 to 6.74 nM
[1]
  IC50: 0.158 to 4.71 nM

## CCCC[C@H]1C(=O)N[C@@H](CCCNC(=N)N)C(=O)NC(C(=O)NCC(N)=O)CSCC(=O)N[C@@H](Cc2ccc(O)cc2)C(=O)N(C)[C@@H](C)C(=O)N[C@@H](CC(N)=O)C(=O)N2CCC[C@H]2C(=O)N[C@@H](CN)C(=O)N[C@@H](CC(C)C)C(=O)N2CCC[C@H]2C(=O)N[C@@H](Cc2c[nH]c3ccccc23)C(=O)N[C@@H](CO)C(=O)N[C@@H](Cc2csc3ccccc23)C(=O)N(C)[C@@H](CCSC)C(=O)N1C (stereo partly drawn) [Example 9090] ({CH2CO}-Y[NMeA]NP[Dap]LPWS[Bta][NMeM][NMeNle]R[ξC]G-NH2; thioether N-14)
Human PD-L1/PD-1
  IC50: 0.385 to 6.74 nM
[1]
  IC50: 0.158 to 4.71 nM

## CCCC[C@H]1C(=O)N[C@@H](CCCNC(=N)N)C(=O)NC(C(=O)NCC(N)=O)CSCC(=O)N[C@@H](Cc2ccc(O)cc2)C(=O)N(C)[C@@H](C)C(=O)N[C@@H](CC(N)=O)C(=O)N2CCC[C@H]2C(=O)N[C@@H](CN)C(=O)N[C@@H](CC(C)C)C(=O)N2C[C@H](O)C[C@H]2C(=O)N[C@@H](Cc2c[nH]c3ccccc23)C(=O)N[C@@H](CO)C(=O)N[C@@H](Cc2csc3ccccc23)C(=O)N(C)[C@@H](CCSC)C(=O)N1C (stereo partly drawn) [Example 9092] ({CH2CO}-Y[NMeA]NP[Dap]L[Hyp]WS[Bta][NMeM][NMeNle]R[ξC]G-NH2; thioether N-14)
Human PD-L1/PD-1
  IC50: 6.76 to 30.3 nM
[1]
  IC50: 0.158 to 4.71 nM

## CCCC[C@H]1C(=O)N[C@@H](C)C(=O)NC(C(=O)NCC(N)=O)CSCC(=O)N[C@@H](Cc2ccc(O)cc2)C(=O)N(C)[C@@H](C)C(=O)N[C@@H](CC(N)=O)C(=O)N2CCC[C@H]2C(=O)N[C@@H](CN)C(=O)N[C@@H](CC(C)C)C(=O)N2CCC[C@H]2C(=O)N[C@@H](Cc2c[nH]c3ccccc23)C(=O)N[C@@H](CO)C(=O)N[C@@H](Cc2c[nH]c3ccccc23)C(=O)N(C)[C@@H](CCSC)C(=O)N1C (stereo partly drawn) [Example 9093] ({CH2CO}-Y[NMeA]NP[Dap]LPWSW[NMeM][NMeNle]A[ξC]G-NH2; thioether N-14)
Human PD-L1/PD-1
  IC50: 6.76 to 30.3 nM
[1]
  IC50: 4.78 to 72.9 nM
